Reference: patent publication US10335462B2, “Use of long-acting GLP-1 peptides” (Novo Nordisk A/S, priority 2012, dated 2019)
Read-outs that look alike come from different tables or passages of the source.

What was measured:
[1] = system: human subjects with type 2 diabetes; conditions: in vivo
Source text: (§1) The placebo composition may be identical to the composition of the GLP-1 agonists, but not containing a GLP-1 agonist.
(§2) In a 12-week, randomised, double-blind, placebo-controlled trial, 411 human subjects (n=43-50 per group) with type 2 diabetes were exposed.

[2] = system: human subjects with type 2 diabetes; assay: 12-week randomised, double-blind, placebo-controlled trial: safety and tolerability
Source text: as §1, §2

major hypoglycaemia [1] | reports of pancreatitis [1] | treatment-related changes in blood calcitonin [1] | Structure (SMILES) | withdrawals due to gastrointestinal adverse events [1] | proportion of subjects with nausea and vomiting ([2]; 12 weeks) | reports of pancreatitis ([2]; 12 weeks) | safety concerns ([2]; 12 weeks) | treatment-related changes in blood calcitonin ([2]; 12 weeks) | major hypoglycaemia ([2]; all dose groups) | withdrawals due to gastrointestinal adverse events ([2]; range over the dose groups) | subjects developing low titre non-neutralising anti-semaglutide antibodies (no cross-reaction to native GLP-1) ([2]; semaglutide 1.6 mg T)
no major hypoglycaemia | no reports | no reports | CCCCCCCCCCCCCCCC(=O)N[C@@H](CCC(=O)NCCCC[C@H](NC(=O)[C@H](C)NC(=O)[C@H](C)NC(=O)[C@H](CCC(N)=O)NC(=O)CNC(=O)[C@H](CCC(=O)O)NC(=O)[C@H](CC(C)C)NC(=O)[C@H](Cc1ccc(O)cc1)NC(=O)[C@H](CO)NC(=O)[C@H](CO)NC(=O)[C@@H](NC(=O)[C@H](CC(=O)O)NC(=O)[C@H](CO)NC(=O)[C@@H](NC(=O)[C@H](Cc1ccccc1)NC(=O)[C@@H](NC(=O)CNC(=O)[C@H](CCC(=O)O)NC(=O)[C@H](C)NC(=O)[C@@H](N)Cc1cnc[nH]1)[C@@H](C)O)[C@@H](C)O)C(C)C)C(=O)N[C@@H](CCC(=O)O)C(=O)N[C@@H](Cc1ccccc1)C(=O)N[C@H](C(=O)N[C@@H](C)C(=O)N[C@@H](Cc1c[nH]c2ccccc12)C(=O)N[C@@H](CC(C)C)C(=O)N[C@H](C(=O)N[C@@H](CCCNC(=N)N)C(=O)NCC(=O)N[C@@H](CCCNC(=N)N)C(=O)NCC(=O)O)C(C)C)[C@@H](C)CC)C(=O)O [liraglutide] | 2.2%-10 | – | – | – | – | – | – | –
– | – | – | CC[C@H](C)[C@H](NC(=O)[C@H](Cc1ccccc1)NC(=O)[C@H](CCC(=O)O)NC(=O)[C@H](CCCCNC(=O)COCCOCCNC(=O)COCCOCCNC(=O)CC[C@H](NC(=O)CCCCCCCCCCCCCCCCC(=O)O)C(=O)O)NC(=O)[C@H](C)NC(=O)[C@H](C)NC(=O)[C@H](CCC(N)=O)NC(=O)CNC(=O)[C@H](CCC(=O)O)NC(=O)[C@H](CC(C)C)NC(=O)[C@H](Cc1ccc(O)cc1)NC(=O)[C@H](CO)NC(=O)[C@H](CO)NC(=O)[C@@H](NC(=O)[C@H](CC(=O)O)NC(=O)[C@H](CO)NC(=O)[C@@H](NC(=O)[C@H](Cc1ccccc1)NC(=O)[C@@H](NC(=O)CNC(=O)[C@H](CCC(=O)O)NC(=O)C(C)(C)NC(=O)[C@@H](N)Cc1cnc[nH]1)[C@@H](C)O)[C@@H](C)O)C(C)C)C(=O)N[C@@H](C)C(=O)N[C@@H](Cc1c[nH]c2ccccc12)C(=O)N[C@@H](CC(C)C)C(=O)N[C@H](C(=O)N[C@@H](CCCNC(=N)N)C(=O)NCC(=O)N[C@@H](CCCNC(=N)N)C(=O)NCC(=O)O)C(C)C [semaglutide] | – | increased with dose, but were generally mild or moderate and ameliorated by titration | no reports | No semaglutide safety concerns were identified | no reports | no major hypoglycaemia | 4.7%-27.7 | One subject
